Laboratory results as given in the NIST ThermoML archive (doi:10.1021/je020178w).
Numbers after ± are expanded uncertainties.

What was measured:
[1] = 308.15 K, 101.3 kPa, Liquid; for viscosity: Capillary tube (Ostwald / Ubbelohde) method
[2] = xn = mol fraction of the nth substance listed; conditions: 308.15 K, 101.3 kPa, Liquid; for viscosity: Capillary tube (Ostwald / Ubbelohde) method

OCCO [1,2-ethanediol]
Conditions	viscosity [mPa·s]
[1]	10.59 ± 0.14

CNC(C)=O [N-methylacetamide]
[1]
Conditions	mass density [kg/m3]	viscosity [mPa·s]
–	958.9 ± 7.1	3.67 ± 0.05

CNC(C)=O [N-methylacetamide] + OCCO
[2]
Conditions	mass density [kg/m3]
x1 = 0.0847	1089.5 ± 1.5
x1 = 0.212	1068.3 ± 1.5
x1 = 0.3298	1049.4 ± 1.5
x1 = 0.4247	1034.9 ± 1.4
x1 = 0.5255	1020.5 ± 1.4
x1 = 0.6275	1006.3 ± 1.4
x1 = 0.7471	990.5 ± 1.4
x1 = 0.8412	978.6 ± 1.4
x1 = 0.9347	967.3 ± 1.4
x1 = 1	958.9 ± 1.4

CNC(C)=O [N-methylacetamide] + OCCOCCO
[2]
Conditions	mass density [kg/m3]	viscosity [mPa·s]
x1 = 0.1121	1094.4 ± 1.5	16.13 ± 0.24
x1 = 0.2394	1079.9 ± 1.5	14.47 ± 0.21
x1 = 0.3419	1067.4 ± 1.5	13.11 ± 0.19
x1 = 0.4564	1052.2 ± 1.5	11.57 ± 0.17
x1 = 0.5574	1037.8 ± 1.5	10.17 ± 0.14
x1 = 0.6538	1023.2 ± 1.5	8.8 ± 0.12
x1 = 0.7649	1005.3 ± 1.5	7.2 ± 0.1
x1 = 0.8343	993 ± 1.5	6.16 ± 0.08
x1 = 0.9252	975.2 ± 1.4	4.8 ± 0.06
x1 = 1	958.9 ± 1.4	3.67 ± 0.05

CNC(C)=O [N-methylacetamide] + OCCOCCOCCO
[2]
Conditions	mass density [kg/m3]	viscosity [mPa·s]
x1 = 0.1142	1103.7 ± 1.5	21.93 ± 0.36
x1 = 0.2059	1095.7 ± 1.5	20.39 ± 0.33
x1 = 0.3069	1085.6 ± 1.5	18.59 ± 0.29
x1 = 0.4265	1071.8 ± 1.5	16.35 ± 0.25
x1 = 0.5415	1056.3 ± 1.5	14.01 ± 0.21
x1 = 0.6392	1041 ± 1.5	11.91 ± 0.17
x1 = 0.7266	1025.3 ± 1.5	9.98 ± 0.14
x1 = 0.8278	1004.5 ± 1.5	7.74 ± 0.11
x1 = 0.9307	979.5 ± 1.4	5.3 ± 0.07
x1 = 1	958.9 ± 1.4	3.67 ± 0.05

OCCOCCO [diethylene glycol]
[1]
Conditions	mass density [kg/m3]	viscosity [mPa·s]
–	1105.6 ± 1.5	17.59 ± 0.27

OCCOCCO [diethylene glycol] + CNC(C)=O
[2], x2 = 0
Conditions	mass density [kg/m3]	viscosity [mPa·s]
–	1105.6 ± 1.5	17.59 ± 0.27

OCCOCCOCCO [triethylene glycol]
[1]
Conditions	mass density [kg/m3]	viscosity [mPa·s]
–	1112.1 ± 1.5	23.84 ± 0.39

OCCOCCOCCO [triethylene glycol] + CNC(C)=O
[2], x2 = 0
Conditions	mass density [kg/m3]	viscosity [mPa·s]
–	1112.1 ± 1.5	23.84 ± 0.39
